Test results published in patent US20080255104A1, “Nsaid Compositions” (EQUITECH CORPORATION, priority 2004, published 2008).
In brackets after ≈: the same amount, converted by molar mass. Marks after values point to notes of the source that are not given here.

Experiments:
[1] = Oral bioavailability of ibuprofen crushed tablets in control and vagal-suppressed (Pain Model) rats; type: in vivo, Sprague-Dawley rats; conditions: Pain Model (vagal-suppressed, propantheline) rats, 20 mg/kg oral
From the text: Delayed absorption caused by vagal suppression that has previously been reported in the literature (e.g., Jamali & Axelson, 1997) was used to test the absorption rates of new meloxicam formulations.
The animal models are adult male Sprague-Dawley rats with body weight of 250-300 g, and which were cared for in accordance with the principles and guidelines of the Canadian Council of Animal Care. All rats were catheterized in the right jugular vein for sample collection.
An animal model having suppressed vagal properties were produced by administering (intraperitoneal injection) to the rats two 20 mg/kg doses of propantheline (test, n=6), an anticholinergic agent with known vagal suppressive properties, the first dose at 2 hours prior to administration of an NSAID, and the second at 1 hour prior.
The tablets were crushed gently and small pieces were administered into the stomach via a plastic tube followed by 0.5 mL tap water. Animals were fasted after the first dose of propantheline until 4 hours post-meloxicam dose. They had free access to water.

[2] = 200 mg and 600 mg doses, dental surgery; cited from earlier work
[3] = pH 2-4; cited from earlier work
[4] = Solubility of meloxicam in simulated gastric fluid pH 1.2; type: physicochemical; conditions: for solubility at 72 h: simulated gastric fluid, pH 1.2, simulated gastric fluid, thermodynamic from solid
Description: Excess of different compositions and pure meloxicam powder were transferred into test tubes.
10 ml of USP simulated gastric fluid, pH 1.2 (SGF) was added.
Samples were shaken for 72 h at room temperature.
Filtered solutions were analyzed for meloxicam.

| AUC (0-8) [1] | Cmax [1] | Tmax [1] | solubility in simulated gastric fluid when loaded on Neusilin® and mixed with Gelucire® 44/14 ([4]; pH 1.2, FIG. 7) | solubility at 72 h ([4]; pH 1.2, combination of Gelucire® and Neusilin®) | solubility at 72 h ([4]; pH 1.2, meloxicam alone) | solubility at 72 h ([4]; pH 1.2, with Gelucire® alone) | solubility at 72 h ([4]; pH 1.2, with the metal silicate alone) | Structure (SMILES) | delay in the mean time to peak concentration caused by surgery [2] | minimum solubility in buffered aqueous systems [3] |
| --- | --- | --- | --- | --- | --- | --- | --- | --- | --- | --- |
| 81.8 μg/h/mL^−1 | 13.8* μg/mL | 45 min |  |  |  |  |  | CC(C)Cc1ccc(C(C)C(=O)O)cc1 (racemic) [ibuprofen] | two |  |
|  |  |  | substantially increased | 11500 µg/mL | 7 µg/mL (≈ 19.9 µM) | 10 µg/mL (≈ 28.5 µM) | 23 to 41 µg/mL (≈ 65.5 to 117 µM) | Cc1cnc(NC(=O)C2=C(O)c3ccccc3S(=O)(=O)N2C)s1 [meloxicam] |  | less than 0.5 µg/ml |
